Activity calls are given as the source filed them. The rule behind the calls is not given here.
Assay: cellular cytoskeleton assembly phenotype modulators – imaging, high-content imaging, retest and dose response, confirmation (AID 1249);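 note: compound exposure lasted 24 h before fixation; plate controls were untreated cells for no effect and reference compound treated cells for full effect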
Conditions: cell-based imaging, cytoskeleton assembly phenotype, high content; at 2 µM; active compounds read high

SMILES	inhibition
COc1cc(C2Nc3ccc4ncccc4c3C3=C2C(=O)CCC3)cc(OC)c1O (configuration not stated)	1.2% (inactive)
O=[N+]([O-])c1ccc(O)c(/C=N/Nc2ccc(Cl)nn2)c1	-6.8% (inactive)
CCc1ccc(C(=O)/C=C/c2ccc([N+](=O)[O-])o2)cc1	-3.9% (inactive)
O=C(CS(=O)c1ccc(C(F)(F)F)cc1[N+](=O)[O-])Oc1ccc(Cl)cc1 (configuration not stated)	5.2% (inactive)
CCC(=O)c1c[nH]c(C(=O)NCC2CCCO2)c1 (configuration not stated)	-0.5% (inactive)
O=C(c1cc(-c2ccncc2)nc2ccc(Br)cc12)N1CCN(c2ccccn2)CC1	-1% (inactive)
O=C(COc1ccccc1)N1CCN(CC(O)COc2ccccc2)CC1 (configuration not stated)	11.3% (inactive)
O=C(CCCCCN1C(=O)c2ccccc2C1=O)Nc1nccs1	8.8% (inactive)
COC1(c2ccccc2)NC(=S)NN=C1c1ccccc1 (configuration not stated)	-7.4% (inactive)
CCOC(=O)c1cnn(-c2nc(CC)nc3sc4c(c23)CCC4)c1N	-4.7% (inactive)
COc1ccc(-c2cc3ccc(OCc4nn[nH]n4)cc3oc2=O)cc1OC	2.8% (inactive)
CSc1ccc(S(=O)(=O)Nc2ccc3c4c(cccc24)CC3)cc1	-10% (inactive)
CSc1nc2nccc(-c3ccc(Oc4ccccc4)cc3)n2n1	-15.1% (inactive)
Cc1nc2ccccc2n1CCCOc1ccccc1	1% (inactive)
CCOc1ccc2ccccc2c1/C=N/n1cncn1	1.1% (inactive)
COc1cc2c3c(c1OC)-c1cc(O)ccc1CC3NCC2 (configuration not stated)	-1.7% (inactive)
CCN1/C(=C\C=C\C2=[N+](CC)c3ccccc3C2(C)C)C(C)(C)c2ccccc21	-15.4% (inactive)
Cc1ccc(Cl)cc1NC1=C/C(=N\S(=O)(=O)c2cccs2)c2ccccc2C1=O	-8% (inactive)
Cc1cccc(OCC(=O)Nc2cc(C)ccc2O)c1	-8.8% (inactive)
CCOC(=O)c1oc2ccccc2c1NC(=O)Cc1cccs1	0.3% (inactive)
COc1ccc(-c2cc3ccccc3oc2=O)cc1NC(=O)c1ccc([N+](=O)[O-])o1	-8.3% (inactive)
OCCN=C1CCCc2c1[nH]c1ccc(Br)cc21	-20.7% (inactive)
COc1ccccc1-n1cnc2cc(NCc3ccco3)ccc21	10.7% (inactive)
CC(=O)Nc1nc2n(n1)C(c1ccc(F)cc1)C=C(c1ccccc1)N2 (configuration not stated)	13.3% (inactive)
O=C(Oc1ccc2ccc(=O)oc2c1)N1CCOCC1	-7.8% (inactive)
OCCN=C(c1ccccc1)C12CN3CN(CN(C3)C1)C2	-2.8% (inactive)

SMILES	inhibition
CCOc1ccc(-n2c(SCC(=O)Nc3ccc(OC)cc3)nc3c(c2=O)SCC3)cc1	7.9% (inactive)
COC(=O)c1[nH]c2cc(OC)ccc2c1NC(=O)CN1CCC(C(N)=O)(N2CCCCC2)CC1	3.6% (inactive)
CC(=O)c1cccc(NC(=O)c2cc(-c3ccc(F)cc3)on2)c1	0.8% (inactive)
CNC(=O)CN(c1ccc(OC)cc1)S(=O)(=O)c1ccc(F)cc1	-9% (inactive)
COC(=O)c1ccccc1NC(NC(=O)c1ccco1)C(=O)c1ccc(C)cc1 (configuration not stated)	2.9% (inactive)
CN=c1sc2ccccc2n1CC(O)COc1ccccc1 (configuration not stated)	-6.5% (inactive)
Cc1oc(-c2ccc(Cl)cc2)cc1-c1nn2c(-c3ccoc3C)nnc2s1	0.3% (inactive)
CCOC(=O)c1ccc(NC(=O)CCNc2c(N3CCCC3)c(=O)c2=O)cc1	1.6% (inactive)
CCn1c(SCC(=O)Nc2cc(C)on2)nnc1-c1ccccc1	0.6% (inactive)
CCCCNC(=O)CSc1cc(=O)n(C)c2ccccc12	-21.1% (inactive)
CN=C(Nc1cc(C)nn1CCC#N)c1ccccc1F	-24.5% (inactive)
CC(=O)Cn1c(N2CCC(Cc3ccccc3)CC2)nc2c1c(=O)[nH]c(=O)n2C	-5.3% (inactive)
COc1ccc(Oc2cc(NC(=O)c3nn(C)cc3[N+](=O)[O-])cc([N+](=O)[O-])c2)cc1	11.6% (inactive)
O=C(O)C1C2C=CC(O2)C1C(=O)Nc1ccc(S(=O)(=O)Nc2ccccc2)cc1 (configuration not stated)	-5.8% (inactive)
CCCNS(=O)(=O)c1ccc2c(c1)CCCN2C(C)=O	-1.4% (inactive)
COC(=O)c1ccccc1NC(=O)c1ccc(-c2cccc(Cl)c2)o1	2.6% (inactive)
CC(=O)Nc1ccc(NC2(C)C(=O)c3ccccc3C2=O)cc1	0.7% (inactive)
O=C(NCc1ccco1)c1cc(-c2ccc(Cl)cc2)on1	10.5% (inactive)
Cc1ccc(C(=O)c2cc([N+](=O)[O-])ccc2N2CCOCC2)c(C)c1	3.2% (inactive)
Cc1ccccc1-c1cc(-c2ccccc2O)on1	-5.9% (inactive)
O=c1[nH]c2cccnc2n1Cc1ccccc1	-3.8% (inactive)
Cc1cccc(NC(=O)CC2SC(=O)N(c3ccccc3)C2=O)c1 (configuration not stated)	1.5% (inactive)
COc1ccc(NC(=O)C(NC(=O)c2ccccc2)C(C)C)cc1 (configuration not stated)	4.5% (inactive)
CCOc1ccccc1/C=N/Nc1ccccc1[N+](=O)[O-]	-0.7% (inactive)
OC(c1ccccn1)c1c[nH]c2ccccc12 (configuration not stated)	14.9% (inactive)
Cc1nn(CC(=O)Nc2ccc(C(=O)N(C)C)cc2)c(=O)c2ccccc12	4.3% (inactive)

SMILES	inhibition
CCNCC(O)COCC(O)CNCC (configuration not stated)	5.1% (inactive)
CCCOc1ccc(C(=O)C(CN2CCOCC2)c2ccccc2)cc1 (configuration not stated)	4.4% (inactive)
CC(=O)c1cccc(NC(=O)NCc2cccnc2)c1	12.9% (inactive)
Cc1ncc(CO)c2cc(C(N)=O)c(=Nc3ccccc3)oc12	-1.3% (inactive)
CCn1c(CN2CCN(c3ccc(Cl)cc3)CC2)nc2ccccc21	-1% (inactive)
CC1(C)OC(=O)C(=NNc2ccc(O)cc2)C(=O)O1	-11.1% (inactive)
Cc1ccc(OCC(O)CNS(=O)(=O)c2ccccc2C(=O)N2CCCCC2)cc1 (configuration not stated)	-15.6% (inactive)
Cc1cccnc1N(C(=O)Nc1ccccc1)C1=NCC(C)(C)S1	-10.2% (inactive)
Nc1ccccc1NC(=O)c1ccccc1N	3.6% (inactive)
COC(=O)Sc1nc(N2CCOCC2)c2c(c1C#N)CC(C)(C)OC2	4.8% (inactive)
O=c1ccc(Oc2nc(N3CCOCC3)nc(N3CCOCC3)n2)nn1-c1ccccc1	9.9% (inactive)
CN(Cc1ccccc1)S(=O)(=O)c1ccc(NC(=S)NC(=O)C2CCCC2)cc1	-1.4% (inactive)
CCOC(=O)C1=C(SCC)c2cc3c(n2C1=O)CCCC3	8.4% (inactive)
CC1=C(C#N)C(Nc2cccc(C)n2)(C(F)(F)F)C(=O)N1 (configuration not stated)	7% (inactive)
CCOc1ccc2[nH]c(C)c(CN3CCOCC3)c(=O)c2c1	-4.5% (inactive)
Cc1ccc(-n2c([O-])nc(-[n+]3ccccc3)c2C=O)cc1	-7.2% (inactive)
C=CCc1ccccc1OCC(O)CNC (configuration not stated)	2.3% (inactive)
CCN(CC)c1ccc(-c2nn3c(-c4n[nH]c5c4CCC5)nnc3s2)cc1	5.7% (inactive)
Clc1ccc2nc(CSc3nc4ccccc4o3)cn2c1	14.4% (inactive)
CSc1nnc2n(-c3ccccc3)c(=O)c3c4c(sc3n12)CCC4	8.1% (inactive)
COc1ccc(CC(=O)Nc2ccc(-c3noc(-c4cccc(OC)c4)n3)cc2)cc1	13.6% (inactive)
O=C1CC(c2ccccc2)Cc2nc3ncnn3cc21 (configuration not stated)	2.1% (inactive)
COc1cc(C(=O)Nc2ccc(S(=O)(=O)NC(C)(C)C)cc2)cc(OC)c1OC	-3.5% (inactive)
Cc1cc(C)cc(NC(=O)CC2NCCNC2=O)c1 (configuration not stated)	-1.4% (inactive)
COc1ccc(CS(=O)(=O)/C(Cl)=C(/Cl)C(=O)Nc2ccc(OC)nc2)cc1	-6.2% (inactive)
Cc1cc(N2CCC(C)CC2)nc(-n2nc(C)cc2C)n1	4.7% (inactive)

SMILES	inhibition
CC1CCCN(c2nc3ccsc3c(=O)s2)C1 (configuration not stated)	2.9% (inactive)
OCCNCC(O)Cn1ccc2ccccc21 (configuration not stated)	-2.9% (inactive)
CCCn1c(SCC(=O)NCc2ccco2)nnc1C(C)C	-5.7% (inactive)
CCCC(=O)Nc1ccc(Cl)c(NC(=O)CC)c1	-2% (inactive)
c1ccc(-c2nnc(CSc3nncs3)o2)cc1	-7.1% (inactive)
CCN1C(=O)CSC1=NC12CC3CC(CC(C3)C1)C2	-5.5% (inactive)
CCC(=O)Nc1cccc(NC(=O)c2cc3ccccc3o2)c1	-5.6% (inactive)
Oc1ccc(N=Nc2n[nH]c(-c3ccc(Cl)cc3)n2)cc1	-2.5% (inactive)
CCOc1ccc(C(=O)C(c2ccccc2)N2CCOCC2)cc1 (configuration not stated)	4.3% (inactive)
Cc1c(Cl)cccc1-n1ccnc1SCC(=O)O	2.2% (inactive)
CC(=O)c1c(C)oc2ccc(N(C(C)=O)S(=O)(=O)c3ccc(Cl)c([N+](=O)[O-])c3)cc12	-11.2% (inactive)
NC(=S)N/N=C\c1ccc(-c2cccc(Cl)c2Cl)o1	-8.9% (inactive)
CCOC(=O)c1ccc(NS(=O)C23CC4CC(CC(C4)C2)C3)cc1 (configuration not stated)	-10.9% (inactive)
Cc1ccc(NC(=O)c2oc3c(c2C)C(=O)CC(C)(C)C3)cc1	-7.9% (inactive)
COc1ccc2c(c1)CCc1c(C(=O)N3CC4(C)CC3CC(C)(C)C4)noc1-2 (configuration not stated)	4.4% (inactive)
Cc1ccc(S(=O)(=O)NC(CC(=O)O)c2ccco2)cc1 (configuration not stated)	8.2% (inactive)
CCOc1ccc(N2C(=O)CSC2c2ccncc2)cc1 (configuration not stated)	4.4% (inactive)
O=c1c2ccccc2nc(/C=C/c2ccc([N+](=O)[O-])o2)n1CCCO	-3.1% (inactive)
COc1ccc(N=c2oc3ccc(OC)cc3cc2-c2nc3ccccc3[nH]2)cc1	4.3% (inactive)
O=C(Nc1nccs1)c1cccc(N2C(=O)c3cccc4c([N+](=O)[O-])ccc(c34)C2=O)c1	-8.2% (inactive)
C[n+]1ccc(/C=C/c2ccc(Br)cc2)cc1	7.4% (inactive)
O=C1C2CCCN2C(c2cccnc2)N1c1ccc(Cl)c(Cl)c1 (configuration not stated)	3.6% (inactive)
COc1ccc(-c2nc(-c3ccc(NC(=O)c4ccc(Br)o4)cc3)no2)cc1OC	-10.3% (inactive)
CCn1c(Cc2ccccc2)nnc1SCC(=O)NC1CC1	10.7% (inactive)

Reference: PubChem BioAssay AID1249 (Columbia University Molecular Screening Center, 2008)
